# Measured values as given in article PMC10004634 (PLOS ONE, 2023).
# How the values were obtained:
# Experiment in all cases: biochemical
# Design in all cases: KINOMEscan scanMAX competition binding, DNA-tagged kinases, qPCR read-out, percent control at 300 nM
# [1] = biological target: TLK2 (Homo sapiens, UniProt Q86UE8); details: read-out: Percent control / Tirabrutinib
# [2] = biological target: MARK1 (Homo sapiens, UniProt Q9P0L2); details: read-out: Percent control / Tirabrutinib
# [3] = biological target: T1, PRKR (Homo sapiens, UniProt P19525); details: read-out: Percent control / Tirabrutinib
# T1 construct: gene EIF2AK2
# [4] = biological target: EGFR(G719S) (Homo sapiens, UniProt P00533, G719S); details: read-out: Percent control / Tirabrutinib
# [5] = biological target: GRK1 (Homo sapiens, UniProt Q15835); details: read-out: Percent control / Zanubrutinib
# [6] = biological target: LRRK2 (Homo sapiens, UniProt Q5S007); details: read-out: Percent control / Zanubrutinib
# [7] = biological target: T2, CDK4-cyclinD1 (Homo sapiens, UniProt P11802); details: read-out: Percent control / Zanubrutinib
# T2 construct: cyclinD1
# [8] = biological target: CDKL5 (Homo sapiens, UniProt O76039); details: read-out: Percent control / Zanubrutinib
# [9] = biological target: EPHA5 (Homo sapiens, UniProt P54756); details: read-out: Percent control / Zanubrutinib
# EPHA5, sequence (P54756 whole entry): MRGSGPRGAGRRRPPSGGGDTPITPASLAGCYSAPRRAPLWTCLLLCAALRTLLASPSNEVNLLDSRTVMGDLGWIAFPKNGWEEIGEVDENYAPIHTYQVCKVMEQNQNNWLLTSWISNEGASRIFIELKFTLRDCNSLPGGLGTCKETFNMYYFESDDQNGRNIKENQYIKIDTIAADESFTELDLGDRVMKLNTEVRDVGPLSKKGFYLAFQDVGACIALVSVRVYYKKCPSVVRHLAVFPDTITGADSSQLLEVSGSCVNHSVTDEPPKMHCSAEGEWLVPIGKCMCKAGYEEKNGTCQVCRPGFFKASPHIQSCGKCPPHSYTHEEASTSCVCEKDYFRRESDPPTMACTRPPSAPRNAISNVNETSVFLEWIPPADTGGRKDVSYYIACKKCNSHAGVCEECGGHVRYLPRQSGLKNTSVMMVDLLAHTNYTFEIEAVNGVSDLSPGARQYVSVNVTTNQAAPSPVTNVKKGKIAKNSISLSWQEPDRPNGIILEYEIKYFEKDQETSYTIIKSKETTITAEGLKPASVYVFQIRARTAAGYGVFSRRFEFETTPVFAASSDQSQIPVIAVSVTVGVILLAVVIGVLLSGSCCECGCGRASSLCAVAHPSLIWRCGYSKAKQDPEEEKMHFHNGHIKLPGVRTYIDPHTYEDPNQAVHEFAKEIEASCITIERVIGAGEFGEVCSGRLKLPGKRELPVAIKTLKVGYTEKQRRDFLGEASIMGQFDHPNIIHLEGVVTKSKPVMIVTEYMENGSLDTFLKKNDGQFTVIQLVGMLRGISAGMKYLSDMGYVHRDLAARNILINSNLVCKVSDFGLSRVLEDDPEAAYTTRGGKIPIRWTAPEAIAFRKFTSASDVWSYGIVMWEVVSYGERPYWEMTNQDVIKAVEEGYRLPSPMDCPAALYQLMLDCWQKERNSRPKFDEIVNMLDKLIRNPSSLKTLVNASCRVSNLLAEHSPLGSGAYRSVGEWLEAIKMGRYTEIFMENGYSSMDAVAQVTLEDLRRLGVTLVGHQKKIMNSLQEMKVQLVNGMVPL
# [10] = biological target: CSNK2A2 (Homo sapiens, UniProt P19784); details: read-out: Percent control / Zanubrutinib
# CSNK2A2, sequence (P19784 whole entry): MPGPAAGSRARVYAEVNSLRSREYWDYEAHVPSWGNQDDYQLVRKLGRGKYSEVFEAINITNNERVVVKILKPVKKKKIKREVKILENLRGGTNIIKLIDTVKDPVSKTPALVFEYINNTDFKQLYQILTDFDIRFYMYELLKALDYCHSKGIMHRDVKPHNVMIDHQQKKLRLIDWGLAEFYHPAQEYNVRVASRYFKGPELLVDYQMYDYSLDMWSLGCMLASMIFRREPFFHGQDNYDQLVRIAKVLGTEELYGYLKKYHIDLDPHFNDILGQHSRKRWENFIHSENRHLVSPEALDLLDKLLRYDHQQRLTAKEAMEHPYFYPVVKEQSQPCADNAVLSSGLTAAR
# [11] = biological target: LRRK2(G2019S) (Homo sapiens, UniProt Q5S007, G2019S); details: read-out: Percent control / Zanubrutinib
# [12] = biological target: TGFBR2 (Homo sapiens, UniProt P37173); details: read-out: Percent control / Zanubrutinib
# [13] = biological target: ZAP70 (Homo sapiens, UniProt P43403); details: read-out: Percent control / Zanubrutinib
# [14] = biological target: MYLK2 (Homo sapiens, UniProt Q9H1R3); details: read-out: Percent control / Zanubrutinib
# [15] = biological target: T3, TRKC (Homo sapiens, UniProt Q16288); details: read-out: Percent control / Zanubrutinib
# T3 construct: gene NTRK3
# T3 sequence (Q16288 whole entry): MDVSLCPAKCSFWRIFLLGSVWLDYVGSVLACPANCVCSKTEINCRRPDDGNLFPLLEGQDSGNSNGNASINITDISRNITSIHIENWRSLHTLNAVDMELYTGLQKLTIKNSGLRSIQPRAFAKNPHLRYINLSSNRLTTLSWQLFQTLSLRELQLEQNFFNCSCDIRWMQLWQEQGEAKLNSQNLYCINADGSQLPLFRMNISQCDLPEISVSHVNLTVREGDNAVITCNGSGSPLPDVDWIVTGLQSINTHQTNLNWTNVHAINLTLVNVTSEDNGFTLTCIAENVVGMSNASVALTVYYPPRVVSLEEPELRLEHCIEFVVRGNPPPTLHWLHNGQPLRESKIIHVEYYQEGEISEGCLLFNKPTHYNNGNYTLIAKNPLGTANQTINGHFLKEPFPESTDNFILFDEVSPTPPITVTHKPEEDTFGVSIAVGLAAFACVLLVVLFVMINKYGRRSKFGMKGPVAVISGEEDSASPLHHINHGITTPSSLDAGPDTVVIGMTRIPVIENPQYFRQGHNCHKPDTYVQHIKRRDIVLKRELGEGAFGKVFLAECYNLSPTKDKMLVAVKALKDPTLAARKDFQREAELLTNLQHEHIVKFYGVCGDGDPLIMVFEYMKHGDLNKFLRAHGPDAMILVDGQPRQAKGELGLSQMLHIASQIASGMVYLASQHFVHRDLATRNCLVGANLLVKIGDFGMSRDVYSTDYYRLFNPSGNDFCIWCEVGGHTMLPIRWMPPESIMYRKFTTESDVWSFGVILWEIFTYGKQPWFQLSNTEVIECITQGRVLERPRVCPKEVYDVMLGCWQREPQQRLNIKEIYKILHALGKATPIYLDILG
# [16] = biological target: ULK2 (Homo sapiens, UniProt Q8IYT8); details: read-out: Percent control / Zanubrutinib
# [17] = biological target: TNK1 (Homo sapiens, UniProt Q13470); details: read-out: Percent control / Zanubrutinib
# [18] = biological target: ACVR1 (Homo sapiens, UniProt Q04771); details: read-out: Percent control / Zanubrutinib
# [19] = biological target: T4, JNK3 (Homo sapiens, UniProt P53779); details: read-out: Percent control / Acalabrutinib
# T4 construct: gene MAPK10
# [20] = biological target: EIF2AK1 (Homo sapiens, UniProt Q9BQI3); details: read-out: Percent control / Acalabrutinib
# EIF2AK1, sequence (Q9BQI3 whole entry): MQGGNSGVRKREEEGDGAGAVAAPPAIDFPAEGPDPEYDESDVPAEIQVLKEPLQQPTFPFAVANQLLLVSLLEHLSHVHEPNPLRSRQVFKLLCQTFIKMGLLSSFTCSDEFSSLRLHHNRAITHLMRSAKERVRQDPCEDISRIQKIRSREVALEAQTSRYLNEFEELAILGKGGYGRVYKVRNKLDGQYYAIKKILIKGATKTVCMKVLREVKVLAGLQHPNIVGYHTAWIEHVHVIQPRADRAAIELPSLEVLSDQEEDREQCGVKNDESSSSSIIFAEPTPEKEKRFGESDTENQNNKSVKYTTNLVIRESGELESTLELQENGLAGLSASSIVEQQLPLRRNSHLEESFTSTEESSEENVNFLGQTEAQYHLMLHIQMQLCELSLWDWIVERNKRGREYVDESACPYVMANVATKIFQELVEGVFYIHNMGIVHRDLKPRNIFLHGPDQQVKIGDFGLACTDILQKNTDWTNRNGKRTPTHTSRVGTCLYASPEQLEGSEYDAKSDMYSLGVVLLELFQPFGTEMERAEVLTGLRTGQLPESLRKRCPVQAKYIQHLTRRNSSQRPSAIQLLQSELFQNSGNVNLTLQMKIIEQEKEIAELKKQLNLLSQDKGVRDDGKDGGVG
# [21] = biological target: TGFBR1 (Homo sapiens, UniProt P36897); details: read-out: Percent control / Acalabrutinib
# [22] = biological target: CSNK1A1 (Homo sapiens, UniProt P48729); details: read-out: Percent control / Acalabrutinib
# [23] = biological target: CAMK2A (Homo sapiens, UniProt Q9UQM7); details: read-out: Percent control / Ibrutinib
# CAMK2A, sequence (Q9UQM7 whole entry, looked up): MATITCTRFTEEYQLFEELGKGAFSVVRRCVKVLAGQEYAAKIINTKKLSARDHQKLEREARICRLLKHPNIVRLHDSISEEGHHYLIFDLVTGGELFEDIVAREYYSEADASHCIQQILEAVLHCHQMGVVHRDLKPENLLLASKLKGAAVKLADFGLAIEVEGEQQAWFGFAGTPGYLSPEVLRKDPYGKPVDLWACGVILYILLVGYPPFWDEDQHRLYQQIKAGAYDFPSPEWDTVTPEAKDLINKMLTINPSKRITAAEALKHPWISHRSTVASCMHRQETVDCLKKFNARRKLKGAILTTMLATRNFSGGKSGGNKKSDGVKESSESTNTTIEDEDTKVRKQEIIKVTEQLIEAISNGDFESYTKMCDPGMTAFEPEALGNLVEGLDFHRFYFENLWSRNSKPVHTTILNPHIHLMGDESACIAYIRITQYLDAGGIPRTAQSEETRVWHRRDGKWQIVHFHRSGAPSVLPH
# MARK1, sequence (Q9P0L2 whole entry): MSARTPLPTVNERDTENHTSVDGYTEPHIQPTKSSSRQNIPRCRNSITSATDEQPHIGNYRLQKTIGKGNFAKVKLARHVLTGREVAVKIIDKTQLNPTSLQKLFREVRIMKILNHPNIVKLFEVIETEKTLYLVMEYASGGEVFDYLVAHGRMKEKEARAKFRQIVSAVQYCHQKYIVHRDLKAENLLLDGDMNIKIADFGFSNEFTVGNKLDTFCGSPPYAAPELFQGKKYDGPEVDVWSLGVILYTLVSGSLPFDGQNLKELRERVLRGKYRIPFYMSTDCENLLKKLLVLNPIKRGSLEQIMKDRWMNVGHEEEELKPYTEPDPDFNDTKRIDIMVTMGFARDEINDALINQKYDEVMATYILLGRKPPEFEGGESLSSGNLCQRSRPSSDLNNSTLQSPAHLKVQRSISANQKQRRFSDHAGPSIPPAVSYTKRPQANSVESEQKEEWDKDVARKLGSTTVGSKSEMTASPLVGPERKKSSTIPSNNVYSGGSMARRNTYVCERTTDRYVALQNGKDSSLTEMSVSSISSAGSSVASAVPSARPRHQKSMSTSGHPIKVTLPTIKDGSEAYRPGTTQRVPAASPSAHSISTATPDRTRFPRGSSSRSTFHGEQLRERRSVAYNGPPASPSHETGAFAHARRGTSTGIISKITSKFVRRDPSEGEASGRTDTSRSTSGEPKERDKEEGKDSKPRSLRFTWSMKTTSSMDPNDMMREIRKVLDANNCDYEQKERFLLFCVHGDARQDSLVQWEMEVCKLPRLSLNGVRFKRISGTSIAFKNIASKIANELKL
# TLK2, sequence (Q86UE8 whole entry): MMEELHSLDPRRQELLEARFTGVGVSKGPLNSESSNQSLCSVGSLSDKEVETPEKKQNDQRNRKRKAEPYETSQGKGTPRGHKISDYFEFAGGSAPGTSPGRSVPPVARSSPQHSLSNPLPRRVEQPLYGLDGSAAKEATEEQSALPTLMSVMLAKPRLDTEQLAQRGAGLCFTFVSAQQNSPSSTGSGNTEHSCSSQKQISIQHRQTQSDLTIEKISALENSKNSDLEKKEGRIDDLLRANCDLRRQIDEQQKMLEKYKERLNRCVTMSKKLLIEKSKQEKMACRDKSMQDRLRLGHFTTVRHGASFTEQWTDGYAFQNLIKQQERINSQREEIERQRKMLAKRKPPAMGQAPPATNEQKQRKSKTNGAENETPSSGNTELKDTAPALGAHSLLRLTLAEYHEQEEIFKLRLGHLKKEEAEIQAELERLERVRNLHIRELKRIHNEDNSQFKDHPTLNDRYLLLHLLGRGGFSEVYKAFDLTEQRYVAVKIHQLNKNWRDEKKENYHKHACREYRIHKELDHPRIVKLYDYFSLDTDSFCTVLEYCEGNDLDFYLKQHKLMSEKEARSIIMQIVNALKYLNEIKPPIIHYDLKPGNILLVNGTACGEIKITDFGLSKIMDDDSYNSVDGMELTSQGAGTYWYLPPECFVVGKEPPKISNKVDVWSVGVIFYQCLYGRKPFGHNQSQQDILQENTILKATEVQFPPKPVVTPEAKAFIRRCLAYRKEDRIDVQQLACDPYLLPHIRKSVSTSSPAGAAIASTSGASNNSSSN
smiles,measurement,setting,value
CC#CC(=O)N1CC[C@@H](n2c(=O)n(-c3ccc(Oc4ccccc4)cc3)c3c(N)ncnc32)C1 [Tirabrutinib],remaining binding at 0.3 µM,[1],90%
same,remaining binding at 0.3 µM,[2],88%
same,remaining binding at 0.3 µM,[3],93%
same,remaining binding at 0.3 µM,[4],85%
C=CC(=O)N1CCC([C@@H]2CCNc3c(C(N)=O)c(-c4ccc(Oc5ccccc5)cc4)nn32)CC1 [Zanubrutinib],remaining binding at 0.3 µM,[5],100%
same,remaining binding at 0.3 µM,[6],64%
same,remaining binding at 0.3 µM,[7],80%
same,remaining binding at 0.3 µM,[8],100%
same,remaining binding at 0.3 µM,[9],97%
same,remaining binding at 0.3 µM,[10],100%
same,remaining binding at 0.3 µM,[11],47%
same,remaining binding at 0.3 µM,[12],90%
same,remaining binding at 0.3 µM,[13],68%
same,remaining binding at 0.3 µM,[14],96%
same,remaining binding at 0.3 µM,[15],97%
same,remaining binding at 0.3 µM,[16],99%
same,remaining binding at 0.3 µM,[17],93%
same,remaining binding at 0.3 µM,[18],100%
CC#CC(=O)N1CCC[C@H]1c1nc(-c2ccc(C(=O)Nc3ccccn3)cc2)c2c(N)nccn12 [Acalabrutinib],remaining binding at 0.3 µM,[19],94%
same,remaining binding at 0.3 µM,[20],85%
same,remaining binding at 0.3 µM,[21],96%
same,remaining binding at 0.3 µM,[22],76%
C=CC(=O)N1CCC[C@@H](n2nc(-c3ccc(Oc4ccccc4)cc3)c3c(N)ncnc32)C1 [Ibrutinib],remaining binding at 0.3 µM,[23],82%
